Test results from patent publication US8758816B2, “Compositions comprising azelastine and methods of use thereof” (priority 2004, dated 2014).
Structures can show the parent of a compound that is named as a salt.

System: patients with seasonal allergic rhinitis (SAR)
Experiment: MP 428 two-week randomized double-blind study: Total Nasal Symptom Score (TNSS), change from baseline
Type: in vivo, human
Design: key to Change from Baseline in AM TNSS, Mean / Change from Baseline in AM TNSS, LS Mean / Change from Baseline in AM TNSS, Median: TNSS sum of 4 symptoms each 0-3 (0=none, 3=severe); change from baseline
Procedure: A two-week, randomized, double-blind study, which evaluated the effects of the co-administration of ASTELIN® (azelastine hydrochloride (HCl)) and FLONASE® (fluticasone propionate) compared to either product alone in patients with seasonal allergic rhinitis (SAR) was conducted during the 2006 Texas mountain cedar season. After a 5-day placebo lead-in period, 151 patients with moderate-to-severe allergic rhinitis symptoms were randomized to either: (1) (49 total patients) ASTELIN® (azelastine hydrochloride (HCl)) plus placebo saline nasal spray 2 sprays per nostril, 15 minutes apart, twice daily (AM & PM); (2) (50 total patients) FLONASE® (fluticasone propionate) plus placebo saline nasal spray, 2 sprays per nostril, 15 minutes apart, once daily (AM) and two sessions of placebo saline nasal spray, 2 sprays per nostril, 15 minutes apart (PM); or (3) (52 total patients) the co-administration of ASTELIN® (azelastine hydrochloride (HCl)) 2 sprays per nostril plus FLONASE® (fluticasone propionate) 2 sprays per nostril (AM), 15 minutes apart, and ASTELIN® (azelastine hydrochloride (HCl)) 2 sprays per nostril plus placebo saline nasal spray, 15 minutes apart, (PM) for a 2-week double-blind treatment period.
The primary efficacy variable was the change from baseline in the Total Nasal Symptom Score (TNSS), which comprised sneezing, itchy nose, runny nose, and nasal congestion (individual symptoms scores were assigned a value between 0 and 3, where 0=no symptoms and 3=severe symptoms). This study was not statistically designed to assess the differences between ASTELIN® and FLONASE®.

[1] = Day 5, Intent-to-Treat Population
[2] = Day 6, Intent-to-Treat Population
[3] = Day 7, Intent-to-Treat Population
[4] = Day 8, Intent-to-Treat Population
[5] = Day 9, Intent-to-Treat Population

SMILES: CN1CCCC(n2nc(Cc3ccc(Cl)cc3)c3ccccc3c2=O)CC1 (racemic) [Azelastine, (±)-1-(2H)-phthalazinone, 4-[(4-chlorophenyl)methyl]-2-(hexahydro-1-methyl-1H-azepin-4-yl)-, mono-hydrochloride]
- Percent Change from Baseline in AM and PM Combined TNSS, Mean [1]: −23.15%
- Percent Change from Baseline in AM and PM Combined TNSS, Median [1]: −18.64%
- Percent Change from Baseline in PM TNSS, LS Mean [1]: −22.87%
- Percent Change from Baseline in PM TNSS, Mean [1]: −22.50%
- Percent Change from Baseline in PM TNSS, Median [1]: −13.04%
- Change from Baseline in AM and PM Combined TNSS, LS Mean (Day 5, Intent-to-Treat Population, ANCOVA model): −4.46
- Change from Baseline in AM and PM Combined TNSS, LS Mean (Day 5, Per-Protocol Population): −4.43
- Change from Baseline in AM and PM Combined TNSS, Mean (Day 5, Per-Protocol Population): −4.48
- Change from Baseline in AM and PM Combined TNSS, Median (Day 5, Per-Protocol Population): −3.67
- Percent Change from Baseline in AM and PM Combined TNSS, LS Mean (Day 5, Per-Protocol Population): −23.17%
- Percent Change from Baseline in AM and PM Combined TNSS, Mean (Day 5, Per-Protocol Population): −23.15%
- Percent Change from Baseline in AM and PM Combined TNSS, Median (Day 5, Per-Protocol Population): −18.64%
- Change from Baseline in AM TNSS, LS Mean [2]: −2.01
- Change from Baseline in AM TNSS, Mean [2]: −2.01
- Change from Baseline in AM TNSS, Median [2]: −2.00
- Change from Baseline in AM and PM Combined TNSS, Mean [2]: −4.44
- Change from Baseline in AM and PM Combined TNSS, Median [2]: −3.70
- Change from Baseline in PM TNSS, LS Mean [2]: −2.38
- Change from Baseline in PM TNSS, Mean [2]: −2.43
- Change from Baseline in PM TNSS, Median [2]: −2.00
- Percent Change from Baseline in AM TNSS, LS Mean [2]: −21.14%
- Percent Change from Baseline in AM TNSS, Mean [2]: −21.35%
- Percent Change from Baseline in AM TNSS, Median [2]: −16.67%
- Percent Change from Baseline in AM and PM Combined TNSS, LS Mean [2]: −23.15%
- Percent Change from Baseline in AM and PM Combined TNSS, Mean [2]: −23.13%
- Percent Change from Baseline in AM and PM Combined TNSS, Median [2]: −18.78%
- Percent Change from Baseline in PM TNSS, LS Mean [2]: −25.18%
- Percent Change from Baseline in PM TNSS, Mean [2]: −24.82%
- Percent Change from Baseline in PM TNSS, Median [2]: −20.45%
- Change from Baseline in AM and PM Combined TNSS, LS Mean (Day 6, Intent-to-Treat Population, ANCOVA model): −4.40
- Change from Baseline in AM and PM Combined TNSS, LS Mean (Day 6, Per-Protocol Population): −4.38
- Change from Baseline in AM and PM Combined TNSS, Mean (Day 6, Per-Protocol Population): −4.44
- Change from Baseline in AM and PM Combined TNSS, Median (Day 6, Per-Protocol Population): −3.70
- Percent Change from Baseline in AM and PM Combined TNSS, LS Mean (Day 6, Per-Protocol Population): −23.16%
- Percent Change from Baseline in AM and PM Combined TNSS, Mean (Day 6, Per-Protocol Population): −23.13%
- Percent Change from Baseline in AM and PM Combined TNSS, Median (Day 6, Per-Protocol Population): −18.78%
- Change from Baseline in AM TNSS, LS Mean [3]: −2.52
- Change from Baseline in AM TNSS, Mean [3]: −2.52
- Change from Baseline in AM TNSS, Median [3]: −2.20
- Change from Baseline in AM and PM Combined TNSS, Mean [3]: −5.09
- Change from Baseline in AM and PM Combined TNSS, Median [3]: −4.67
- Change from Baseline in PM TNSS, LS Mean [3]: −2.54
- Change from Baseline in PM TNSS, Mean [3]: −2.57
- Change from Baseline in PM TNSS, Median [3]: −2.25
- Percent Change from Baseline in AM TNSS, LS Mean [3]: −26.26%
- Percent Change from Baseline in AM TNSS, Mean [3]: −26.58%
- Percent Change from Baseline in AM TNSS, Median [3]: −25.00%
- Percent Change from Baseline in AM and PM Combined TNSS, LS Mean [3]: −26.40%
- Percent Change from Baseline in AM and PM Combined TNSS, Mean [3]: −26.52%
- Percent Change from Baseline in AM and PM Combined TNSS, Median [3]: −23.31%
- Percent Change from Baseline in PM TNSS, LS Mean [3]: −26.39%
- Percent Change from Baseline in PM TNSS, Mean [3]: −26.20%
- Percent Change from Baseline in PM TNSS, Median [3]: −23.81%
- Change from Baseline in AM and PM Combined TNSS, LS Mean (Day 7, Intent-to-Treat Population, ANCOVA model): −5.05
- Change from Baseline in AM and PM Combined TNSS, LS Mean (Day 7, Per-Protocol Population): −5.01
- Change from Baseline in AM and PM Combined TNSS, Mean (Day 7, Per-Protocol Population): −5.09
- Change from Baseline in AM and PM Combined TNSS, Median (Day 7, Per-Protocol Population): −4.67
- Percent Change from Baseline in AM and PM Combined TNSS, LS Mean (Day 7, Per-Protocol Population): −26.32%
- Percent Change from Baseline in AM and PM Combined TNSS, Mean (Day 7, Per-Protocol Population): −26.52%
- Percent Change from Baseline in AM and PM Combined TNSS, Median (Day 7, Per-Protocol Population): −23.31%
- Change from Baseline in AM TNSS, LS Mean [4]: −2.65
- Change from Baseline in AM TNSS, Mean [4]: −2.62
- Change from Baseline in AM TNSS, Median [4]: −2.50
- Change from Baseline in AM and PM Combined TNSS, Mean [4]: −5.38
- Change from Baseline in AM and PM Combined TNSS, Median [4]: −5.00
- Change from Baseline in PM TNSS, LS Mean [4]: −2.69
- Change from Baseline in PM TNSS, Mean [4]: −2.76
- Change from Baseline in PM TNSS, Median [4]: −2.75
- Percent Change from Baseline in AM TNSS, LS Mean [4]: −27.73%
- Percent Change from Baseline in AM TNSS, Mean [4]: −27.83%
- Percent Change from Baseline in AM TNSS, Median [4]: −25.00%
- Percent Change from Baseline in AM and PM Combined TNSS, LS Mean [4]: −28.22%
- Percent Change from Baseline in AM and PM Combined TNSS, Mean [4]: −28.13%
- Percent Change from Baseline in AM and PM Combined TNSS, Median [4]: −23.73%
- Percent Change from Baseline in PM TNSS, LS Mean [4]: −27.94%
- Percent Change from Baseline in PM TNSS, Mean [4]: −28.17%
- Percent Change from Baseline in PM TNSS, Median [4]: −27.27%
- Change from Baseline in AM and PM Combined TNSS, LS Mean (Day 8, Intent-to-Treat Population, ANCOVA model): −5.37
- Change from Baseline in AM and PM Combined TNSS, LS Mean (Day 8, Per-Protocol Population): −5.33
- Change from Baseline in AM and PM Combined TNSS, Mean (Day 8, Per-Protocol Population): −5.38
- Change from Baseline in AM and PM Combined TNSS, Median (Day 8, Per-Protocol Population): −5.00
- Percent Change from Baseline in AM and PM Combined TNSS, LS Mean (Day 8, Per-Protocol Population): −28.14%
- Percent Change from Baseline in AM and PM Combined TNSS, Mean (Day 8, Per-Protocol Population): −28.13%
- Percent Change from Baseline in AM and PM Combined TNSS, Median (Day 8, Per-Protocol Population): −23.73%
- Change from Baseline in AM TNSS, LS Mean [5]: −2.57
- Change from Baseline in AM TNSS, Mean [5]: −2.52
